Reference: paper PMC10979478, “Deciphering the Biosynthesis and Physiological Function of 5-Methylated Pyrazinones Produced by Myxobacteria” (ACS Central Science, 2024)
Residues, ends and D or L forms follow the SMILES beside them. *: point of attachment. Boc = CC(C)(C)OC(=O)*

Experiments:
[1] = system: DK1622-wt; experiment: Agglutination assay in liquid culture; format: cell-based, Myxococcus xanthus; conditions: for dose dependence of flocculation/agglutination: 1~50 mg/L; for ability to induce agglutination (SAR): each compound added at 5 mg/L
Method: (§1) The agglutination assay basically followed the method described by Velicer.[62] Briefly, DK1622 strains were cultured in CTT medium, whereas SDU70 strains were cultured in VY/2 medium. The aggregation-inducing compounds were added together with the initial inocula. After 3 days of growth, ∼2 mL of liquid cultures (in logarithmic growth stage) were transferred into cuvettes. Samples were left static for 15 min to visualize the clumping phenomenon. To plot the agglutination curves, the absorbance readings (600 nm) were measured on a UV-8000 spectrophotometer at differential intervals within 4 h. Decreasing the absorbance represents the settling of agglutinated cell clumps. Data points are the means of three replicates per strain.

[2] = system: DK1622-corB; experiment: Agglutination assay of corB-overexpression mutant; format: cell-based, Myxococcus xanthus; conditions: for agglutination induced by exogenous addition, in corB-overexpressing strain: 5 mg/L; for threshold concentration causing visible flocculation of DK1622-corB relative to DK1622-wt: 1 or 1b′ (Figures S12–S14)
Method: as §1

[3] = system: SDU70-corB; experiment: Agglutination assay of corB-overexpression mutant; format: cell-based, Corallococcus exiguus; conditions: as high as 50 mg/L
Method: as §1

[4] = system: SDU70-ΔcorA-corB; experiment: Agglutination assay of corB-overexpression mutant; format: cell-based, Corallococcus exiguus; conditions: for morphology on induction: 5 mg/L; for clumping: as high as 50 mg/L
Method: as §1

[5] = system: SDU70-ΔcorA; experiment: Agglutination assay in liquid culture; format: cell-based, Corallococcus exiguus; conditions: for dose dependence of flocculation/agglutination: 1~50 mg/L; for ability to induce agglutination (SAR): each compound added at 5 mg/L
Method: as §1

[6] = target: cathepsin L (Homo sapiens, UniProt P07711); experiment: Protease inhibition assay (z-FR-AMC proteolysis); format: biochemical; conditions: compounds 0~500 μM, pre-incubated 60 min at 37 °C, pH 5.5; read-out: inhibition activity against protease cathepsin L, IC50
Chain of cathepsin L (P07711 114-333, species assumed): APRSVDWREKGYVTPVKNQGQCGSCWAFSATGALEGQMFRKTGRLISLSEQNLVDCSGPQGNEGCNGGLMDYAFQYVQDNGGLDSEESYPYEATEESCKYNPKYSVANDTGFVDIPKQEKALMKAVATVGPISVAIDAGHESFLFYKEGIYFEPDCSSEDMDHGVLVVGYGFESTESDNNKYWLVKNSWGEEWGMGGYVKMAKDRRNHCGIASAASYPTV
Method: (§2) The white needle crystals of 2 were obtained from MeOH solvent by slowly volatilizing in a glass vial under ambient condition. The X-ray diffraction measurement of crystals basically followed our previously published method.1 The crystallographic data for 2 was summarized […]6, and deposited in CCDC database under the access number 2278050. Antibacterial Assay. The antibacterial assay was performed by agar diffusion method.2 Single colony of Gram-positive bacteria Staphylococcus aureus, Gram-negative bacterium Acinetobacter baumannii, and fungus Candida albicans were picked and inoculated into 8 mL of LB liquid medium for overnight growth at 37 °C, respectively. Next day, the cultures were 100-fold diluted to 1x10^7 CFU/mL with fresh LB liquid medium, to grow at 37 °C until OD600 0.4~0.6. Compounds 1 and 2 were dissolved […] The disks were then placed onto an agar plate containing a soft agar overlay with the indicator microorganisms. […] MES, 5 mM DTT, pH 5.5) was detected by proteolysis of fluorescent substrate z-FR-AMC. […] The absorbance was measured by microplate reader (Spectra max GEMINI XPS, excitation wavelength 380 nm, emission wavelength 460 nm). […] The mixture was centrifuged at 12000 rpm for 20 minutes, and the supernatant was subsequently analyzed HPLC-DAD. […] The resulting samples were collected by capillary tubes and analyzed by Microscale Thermophoresis (Monolith NT.115). […]

[7] = Cytotoxic activity on human cell lines; format: cell-based; conditions: A549 lung carcinoma cells, mean value of three replicates
[8] = Cytotoxic activity on human cell lines; format: cell-based; conditions: HepG2 hepatocarcinoma cells, mean value of three replicates
[9] = Cytotoxic activity on human cell lines; format: cell-based; conditions: PC3 prostatic carcinoma cells, mean value of three replicates
[10] = Cytotoxic activity on human cell lines; format: cell-based; conditions: KYSE410 esophageal squamous carcinoma cells, mean value of three replicates
[11] = system: Candida albicans; experiment: Agar diffusion assay against fungus; format: cell-based; conditions: 50 μg/disc
Method: as §2

[12] = system: four human cell lines; experiment: Antiproliferative activity, summary statement; format: cell-based; conditions: four human cell lines (Table S2)
[13] = system: Staphylococcus aureus; experiment: Antibacterial assay, agar diffusion method; format: cell-based; conditions: 50 μg/disc
Method: (§3) The white needle crystals of 2 were obtained from MeOH solvent by slowly volatilizing in a glass vial under ambient condition. The X-ray diffraction measurement of crystals basically followed our previously published method.1 The crystallographic data for 2 was summarized […]6, and deposited in CCDC database under the access number 2278050. Antibacterial Assay. The antibacterial assay was performed by agar diffusion method.2 Single colony of Gram-positive bacteria Staphylococcus aureus, Gram-negative bacterium Acinetobacter baumannii, and fungus Candida albicans were picked and inoculated into 8 mL of LB liquid medium for overnight growth at 37 °C, respectively. Next day, the cultures were 100-fold diluted to 1x10^7 CFU/mL with fresh LB liquid medium, to grow at 37 °C until OD600 0.4~0.6. Compounds 1 and 2 were dissolved […] The disks were then placed onto an agar plate containing a soft agar overlay with the indicator microorganisms. Kanamycin (for S. aureus) and apramycin (for C. albicans and E. coli) at a concentration of 1 mg/mL were used as positive controls, and the solvent methanol as the negative control. […] Protease inhibition assay. […] MES, 5 mM DTT, pH 5.5) was detected by proteolysis of fluorescent substrate z-FR-AMC. Enzyme was pre- incubated with a gradient concentration (0~500 μM) of compounds for 60 min at 37 °C in a black 96-well plate. Then, 20 μM of z-FR-AMC was added to each well to make up 200 μ[…] , and the reaction continued for another 30 min. The absorbance was measured by microplate reader (Spectra max GEMINI XPS, excitation wavelength 380 nm, emission wavelength 460 nm). The protease inhibitor E-64 was used as positive control and DMSO was the negative control. All the experiments were completed in triplicate. Enzymatic cleavage of 1 and 1b' using CorB. The reaction was conducted in a 50 μL system comprising of 20 mM Tris-HCl buffer (pH 7.5), 150 mM NaCl, 0.22 mM CorB, and 0.05 mg 1, or 1b' (dissolved in DMSO) respectively. Tris-HCl buffer was used as a negative control, and all experiments were repeated in triplicates. The reactions were incubated at 37 °C for 12 hours and then terminated by adding 50 μL of MeOH. The mixture was centrifuged at 12000 rpm for 20 minutes, and the supernatant was subsequently analyzed HPLC-DAD. MST assay. The purified CorB was mixed with an equal volume of RED-tris-NTA dye solution and incubated in the dark for 30 min, centrifuged at 12000 rpm, 4 °C for 10 min. Then, 10 μL of the CorB-dye complex was mixed with an equal volume of test compound solution ranging from 15.2 μM to 0.5 mM. The resulting samples were collected by capillary tubes and analyzed by Microscale Thermophoresis (Monolith NT.115). 4

[14] = system: Acinetobacter baumannii; experiment: Antibacterial assay, agar diffusion method; format: cell-based; conditions: 50 μg/disc
Method: as §3

[15] = system: DK1622; experiment: Confocal laser scanning microscopy of cells and EPS; format: cell-based, Myxococcus xanthus; conditions: DK1622+1
Method: The microscopic observation of SDU70 and DK1622 basically followed our recently published methods.[63]Scanning electron microscopy (SEM): DK1622 and SDU70 strains (wild type and mutants) were grown to logarithmic stage. The cells were washed three times with 1× PBS buffer and then fixed overnight at 4 °C in 2.5% glutaraldehyde solution. Samples were prepared using the standard ethanol dehydration method,[62] and observed by QUANTA FEG250 scanning electron microscope (Thermo Fisher Scientific, USA). Confocal laser scanning microscopy (CLSM): DK1622 strains were grown in CTT liquid medium for 24 h, while SDU70 strains were grown in VY/2 medium for 72 h. The presence of EPS, eDNA dead cells, and alive cells were labeled with Alexa 350-labeled wheat germ lectin (WGA), SYTOX Orange, and STYO 9, respectively. The images were taken on LSM 900 CLSM (Zeiss, Germany), using 63× oil immersed objective lens. The CLSM images were captured by ZEN software (Zeiss, Germany) and exported by using ImageJ software.

[16] = system: DK1622-wt; experiment: Trypan blue binding assay of EPS production; format: cell-based, Myxococcus xanthus; conditions: DK1622-wt supplemented with 5 mg/L
Method: Exopolysaccharide (EPS) production was measured according to the method published by Black et al.[64] Briefly, wild type and mutant strains of DK1622 were inoculated in liquid CTT medium and incubated for 24 h at 30 °C and 200 rpm. The cells grown to the logarithmic phase were collected by centrifugation, and the supernatants were discarded. Cells were resuspended and adjusted to a density of 5 × 10^8 CFU/mL with TPM buffer (1.97 g/L MgSO4·7H2O, 1 M Tris-HCl, 10 mL 0.1 M PBS, pH 7.6). Next, the cell suspension was evenly mixed with an equal volume of Trypan Blue dye solution (150 μg/mL), and TPM buffer was used as a blank control. The supernatant was centrifuged at 12000 rpm for 5 min, and 200 μL was used for the absorbance measurement at 585 nm. Each experiment was performed in triplicate.

[17] = system: CorB; experiment: MST assay of CorB to coralinone A; format: binding, Corallococcus exiguus SDU70; conditions: 15.2 μM to 0.5 mM test compound
Method: as §2

Row | SMILES | dose dependence of flocculation/agglutination [1] | ability to induce agglutination (SAR) [1] | agglutination induced by exogenous addition, in corB-overexpressing strain [2] | threshold concentration causing visible flocculation of DK1622-corB relative to DK1622-wt [2] | clumping [3] | morphology on induction [4] | clumping [4] | dose dependence of flocculation/agglutination [5] | ability to induce agglutination (SAR) [5] | IC50 [7] [µM] | IC50 [8] [µM] | IC50 [9] [µM] | IC50 [10] [µM] | growth inhibition [11] | antiproliferative activities [12] | growth inhibition [13] | growth inhibition [14] | other results
1 | CC(=O)[C@@H](NC(=O)[C@H](CC(C)C)NC(=O)OC(C)(C)C)C(C)C [1b′] | dose-dependent manner | effective | substantially abated agglutination | 3–4 times | did not clump | maintained the dispersed morphology | did not clump | dose-dependent manner | effective |  |  |  |  |  |  |  |  | 
2 | CC(C)C[C@H](NC(=O)OC(C)(C)C)C(=O)N[C@H](C=O)C(C)C [10b′] (Boc-Leu-Val-aldehyde) |  |  |  |  |  |  |  |  |  |  |  |  |  |  |  |  |  | IC50 [6]: 0.23 µM
3 | CC(=O)O[C@@]12CO[C@@H]1C[C@H](O)[C@@]1(C)C(=O)[C@H](O)C3=C(C)[C@@H](OC(=O)[C@H](O)[C@@H](NC(=O)OC(C)(C)C)c4ccccc4)C[C@@](O)([C@@H](OC(=O)c4ccccc4)[C@H]21)C3(C)C [Docetaxel, reference compound] |  |  |  |  |  |  |  |  |  | 33.1 | 10.3 | 71.9 | 17.8 |  |  |  |  | 
4 | CC[C@H](C)c1[nH]c(=O)c(CC(C)C)nc1C [compound 2, coralinone B] |  |  |  |  |  |  |  |  |  | 145 | 504 | 432 | 312 | No growth inhibition | Neither 1 nor 2 showed any significant antiproliferative activities | No growth inhibition | No growth inhibition | 
5 | Cc1nc(CC(C)C)c(=O)[nH]c1C(C)C [compound 1, coralinone A] | dose-dependent manner | effective | substantially abated agglutination | 3–4 times | did not clump | maintained the dispersed morphology | did not clump | dose-dependent manner | effective | 383 | 892 | 796 | 463 | No growth inhibition | Neither 1 nor 2 showed any significant antiproliferative activities | No growth inhibition | No growth inhibition | flocculation at 5 mg/L in dose series ([1]; 5 mg/L): severe flocculation; flocculation on exogenous supplementation ([1]; 5 mg/L, liquid culture): led to flocculation; concentration that started to be active in causing flocculation ([1]; dose series 1~50 mg/L): 2 mg/L; EPS production (Alexa 350-WGA blue signal in Merge photos) [15]: higher production of EPS; EPS production [16]: cumulation of EPS; binding to CorB (MST) [17]: did not disturb CorB-dye binding; flocculation at 5 mg/L in dose series ([5]; 5 mg/L): severe flocculation; restoration of pellet morphogenesis by chemical complementation ([5]; 5 mg/L, shaken liquid culture): restored; concentration that started to be active in causing flocculation ([5]; dose series 1~50 mg/L): 2 mg/L
